Measurements reported in US8735398B2 (Bristol-Myers Squibb Company, priority 2009, dated 2014).
Read-outs that look alike come from different tables or passages of the source.

Tested on: HCV 1b genotype
Test: HCV replicon assay (HCV-neo replicon cells, wild-type)
Assay type: cell-based, Hepatitis C virus
Conditions: HCV 1b genotype replicon
Summary of the method: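 HCV-neo replicon cells (wild-type) and replicon cells carrying NS5A resistance substitutions were treated with compounds; assay per O'Boyle et al. 2005, with luciferase-reporter read-out variants also used.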

[1] = Hepatitis C virus, class symbol, read-out: EC50 Range against HCV 1b
[2] = Hepatitis C virus, read-out: EC50 1b
[3] = class symbol, read-out: EC50 Range against HCV 1b
[4] = Hepatitis C virus, class symbols, read-out: EC50 Range against HCV 1b

O=C(Nc1ccc(-c2cnc(-c3ccc(NC(=O)[C@@H]4CCCN4C(=O)Cc4cnc[nH]4)cc3)o2)cc1)[C@@H]1CCCN1C(=O)Cc1c[nH]cn1 [XY-14, (2S)-1-(1H-imidazol-4-ylacetyl)-N-(4-(2-(4-((((2S)-1-(1H-imidazol-5-ylacetyl)-2-pyrrolidinyl)carbonyl)amino)phenyl)-1,3-oxazol-5-yl)phenyl)-2-pyrrolidinecarboxamide (non-preferred name)]
EC50 (class symbols, read-out: EC50 Range against HCV 1b): 1000 to 10000 nM

O=C(Nc1ccc(-c2cnc(-c3ccc(NC(=O)[C@@H]4CCCN4C(=O)[C@H]4CCCN4)cc3)o2)cc1)[C@@H]1CCCN1C(=O)[C@H]1CCCN1 [Example D-35, (2S,2′S)-N,N′-(1,3-oxazole-2,5-diyldi-4,1-phenylene)bis(1-((2R)-2-pyrrolidinylcarbonyl)-2-pyrrolidinecarboxamide)]
EC50 [1]: 1000 to 10000 nM | EC50 [2]: 5240 nM

C[C@H](NC(=O)c1cccc(F)n1)C(=O)Nc1ccc(-c2nnc(-c3ccc(NC(=O)[C@H](C)NC(=O)c4cccc(F)n4)cc3)o2)cc1 [RK-29, N,N′-(1,3,4-oxadiazole-2,5-diylbis(4,1-phenyleneimino((2S)-1-oxo-1,2-propanediyl)))bis(6-fluoro-2-pyridinecarboxamide)]
EC50 [1]: 1000 to 10000 nM

C[C@H](NC(=O)OCc1ccccc1)C(=O)Nc1ccc(-c2n[nH]c(=O)n2-c2ccc(NC(=O)[C@H](C)NC(=O)OCc3ccccc3)cc2)cc1 [OL-12, [(1,5-dihydro-5-oxo-4H-1,2,4-triazole-3,4-diyl)bis[4,1-phenyleneimino[(1S)-1-methyl-2-oxo-2,1-ethanediyl]]]bis-carbamic acid, bis(phenylmethyl) ester]
EC50 [1]: 1000 to 10000 nM

O=C(Nc1ccc(-c2cnc(-c3ccc(NC(=O)C4CC5CC5N4C(=O)C(O)c4ccccc4)cc3)o2)cc1)C1CC2CC2N1C(=O)C(O)c1ccccc1 [CB-5, (1S,3S,5S,1′S,3′S,5′S)-N,N′-(1,3-oxazole-2,5-diyldi-4,1-phenylene)bis(2-((2S)-2-hydroxy-2-phenylacetyl)-2-azabicyclo[3.1.0]hexane-3-carboxamide)]
EC50 [3]: 4.57 to 99 nM

O=C(Nc1ccc(-c2nnc(-c3ccc(NC(=O)[C@@H]4CCCCN4C(=O)OCc4ccccc4)cc3)o2)cc1)[C@@H]1CCCCN1C(=O)OCc1ccccc1 [RK-4, dibenzyl (2S,2′S)-2,2′-(1,3,4-oxadiazole-2,5-diylbis(4,1-phenylenecarbamoyl))di(1-piperidinecarboxylate)]
EC50 [1]: 100 to 999 nM

C[C@H](NC(=O)c1nc(Cl)cc2ccccc12)C(=O)Nc1ccc(-c2nnc(-c3ccc(NC(=O)[C@H](C)NC(=O)c4nc(Cl)cc5ccccc45)cc3)o2)cc1 [RK-36, N,N′-(1,3,4-oxadiazole-2,5-diylbis(4,1-phenyleneimino((2S)-1-oxo-1,2-propanediyl)))bis(3-chloro-1-isoquinolinecarboxamide)]
EC50 [4]: 1000 to 10000 nM | EC50 [2]: 1000 nM

O=C(Nc1ccc(-c2cnc(-c3ccc(NC(=O)[C@@H]4CCCN4C(=O)CN4C(=O)OC(c5ccccc5)C4=O)cc3)o2)cc1)[C@@H]1CCCN1C(=O)CN1C(=O)OC(c2ccccc2)C1=O (stereo partly drawn) [JR-22, (2S,2′S)-N,N′-(2,5-oxazolediyldi-4,1-phenylene)bis[1-[(2,4-dioxo-5-phenyl-3-oxazolidinyl)acetyl]-2-pyrrolidinecarboxamide]]
EC50 [4]: 1000 to 10000 nM | EC50 [2]: 1720 nM

CSC[C@H](NC(=O)Cc1ccccc1)C(=O)Nc1ccc(-c2cnc(-c3ccc(NC(=O)[C@H](CSC)NC(=O)Cc4ccccc4)cc3)o2)cc1 [JG-14, (2R,2′R)-N,N′-(1,3-oxazole-2,5-diyldi-4,1-phenylene)bis(3-(methylsulfanyl)-2-((phenylacetyl)amino)propanamide)]
EC50 [1]: 100 to 999 nM

C[C@H](NC(=O)Cc1ccccc1)C(=O)Nc1ccc(-c2nc[nH]c2-c2ccc(NC(=O)[C@H](C)NC(=O)Cc3ccccc3)cc2)cc1 [OL-9, (2S,2′S)-N,N′-(1H-imidazole-4,5-diyldi-4,1-phenylene)bis(2-((phenylacetyl)amino)propanamide)]
EC50 [1]: 1000 to 10000 nM

COc1cccc(CC(=O)N2C[C@H](O)C[C@H]2C(=O)Nc2ccc(-c3cnc(-c4ccc(NC(=O)[C@@H]5C[C@@H](O)CN5C(=O)Cc5cccc(OC)c5)cc4)o3)cc2)c1 [XY-55, (2S,4R,2′S,4′R)-N,N′-(1,3-oxazole-2,5-diyldi-4,1-phenylene)bis(4-hydroxy-1-((3-methoxyphenyl)acetyl)-2-pyrrolidinecarboxamide)]
EC50 [4]: 100 to 999 nM

CCc1ccccc1C(=O)N1C[C@H](O)C[C@H]1C(=O)Nc1ccc(-c2cnc(-c3ccc(NC(=O)[C@@H]4C[C@@H](O)CN4C(=O)c4ccccc4CC)cc3)o2)cc1 [XY-47, (2S,4R,2′S,4′R)-N,N′-(1,3-oxazole-2,5-diyldi-4,1-phenylene)bis(1-(2-ethylbenzoyl)-4-hydroxy-2-pyrrolidinecarboxamide)]
EC50 [4]: 100 to 999 nM | EC50 [2]: 564 nM

CC(C)n1c(=O)n(CC(=O)N2CCC[C@H]2C(=O)Nc2ccc(-c3cnc(-c4ccc(NC(=O)[C@@H]5CCCN5C(=O)Cn5c(=O)n(C(C)C)c6cc(F)c(F)cc65)cc4)o3)cc2)c2cc(F)c(F)cc21 [Example D-9, (2S,2′S)-N,N′-(4,4′-(oxazole-2,5-diyl)bis(4,1-phenylene))bis(1-(2-(5,6-difluoro-3-isopropyl-2-oxo-2,3-dihydro-1H-benzo[d]imidazol-1-yl)acetyl)pyrrolidine-2-carboxamide)]
EC50 [3]: 1000 to 10000 nM | EC50 (read-out: EC50 1b): 3330 nM

O=C(Nc1ccc(-c2cnc(-c3ccc(NC(=O)[C@@H]4CCCN4C(=O)CC4CC4)cc3)o2)cc1)C1CCCN1C(=O)CC1CC1 (stereo partly drawn) [Example D-20, (2′S)-N,N′-(1,3-oxazole-2,5-diyldi-4,1-phenylene)bis(1-(cyclopropylacetyl)-2-pyrrolidinecarboxamide)]
EC50 [1]: 100 to 999 nM

CN1CCN(C(C(=O)N2CCC[C@H]2C(=O)Nc2ccc(-c3cnc(-c4ccc(NC(=O)[C@@H]5CCCN5C(=O)C(c5ccccc5)N5CCN(C)CC5)cc4)o3)cc2)c2ccccc2)CC1 (stereo partly drawn) [Example D-8, (2S,2′S)-N,N′-(1,3-oxazole-2,5-diyldi-4,1-phenylene)bis(1-((4-methyl-1-piperazinyl)(phenyl)acetyl)-2-pyrrolidinecarboxamide)]
EC50 [1]: 4.57 to 99 nM

O=C(Nc1ccc(-c2cnc(-c3ccc(NC(=O)[C@@H]4CCCN4C(=O)C(O)c4nccs4)cc3)o2)cc1)[C@@H]1CCCN1C(=O)C(O)c1nccs1 (stereo partly drawn) [Example D-10, (2S,2′S)-N,N′-(1,3-oxazole-2,5-diyldi-4,1-phenylene)bis(1-(hydroxy(1,3-thiazol-2-yl)acetyl)-2-pyrrolidinecarboxamide)]
EC50 [1]: 100 to 999 nM

O=C(Nc1ccc(-c2cnc(-c3ccc(NC(=O)[C@@H]4CCCN4C(=O)C(O)Cc4c[nH]c5ccccc45)cc3)o2)cc1)[C@@H]1CCCN1C(=O)C(O)Cc1c[nH]c2ccccc12 (stereo partly drawn) [JR-5, (2S,2′S)-N,N′-(2,5-oxazolediyldi-4,1-phenylene)bis[1-[2-hydroxy-3-(1H-indol-3-yl)-1-oxopropyl]-2-pyrrolidinecarboxamide]]
EC50 [4]: 100 to 999 nM

CO[C@H]1C[C@@H](C(=O)Nc2ccc(-c3cnc(-c4ccc(NC(=O)[C@@H]5C[C@H](OC)CN5C(=O)C(NC(C)=O)c5ccccc5)cc4)o3)cc2)N(C(=O)C(NC(C)=O)c2ccccc2)C1 (stereo partly drawn) [OL-60, (2S,4S,2′S,4′S)-N,N′-(1,3-oxazole-2,5-diyldi-4,1-phenylene)bis(1-(acetamido(phenyl)acetyl)-4-methoxy-2-pyrrolidinecarboxamide)]
EC50 [1]: 4.57 to 99 nM

O=C(Nc1ccc(-c2nnc(-c3ccc(NC(=O)[C@@H]4CCCN4C(=O)Cc4cccnc4)cc3)o2)cc1)[C@@H]1CCCN1C(=O)Cc1cccnc1 [Example D-63, (2S,2′S)-N,N′-(1,3,4-oxadiazole-2,5-diyldi-4,1-phenylene)bis[1-(3-pyridinylacetyl)-2-pyrrolidinecarboxamide]]
EC50 [1]: 1000 to 10000 nM | EC50 [2]: 1940 nM

O=C(Nc1ccc(-c2cnc(-c3ccc(NC(=O)[C@@H]4C[C@@H](O)CN4C(=O)c4ccccc4)cc3)o2)cc1)[C@@H]1C[C@@H](O)CN1C(=O)c1ccccc1 [XY-56, (2S,4R,2′S,4′R)-N,N′-(1,3-oxazole-2,5-diyldi-4,1-phenylene)bis(1-benzoyl-4-hydroxy-2-pyrrolidinecarboxamide)]
EC50 [4]: 100 to 999 nM

Cc1nc(-c2ccc(NC(=O)[C@H](C)NC(=O)OCc3ccccc3)cc2)c(-c2ccc(NC(=O)[C@H](C)NC(=O)OCc3ccccc3)cc2)o1 [OL-4, [(2-methyl-4,5-oxazolediyl)bis[4,1-phenyleneimino[(1S)-1-methyl-2-oxo-2,1-ethanediyl]]]bis-carbamic acid, bis(phenylmethyl) ester]
EC50 [1]: 100 to 999 nM | EC50 [2]: 220 nM

Cc1nc(-c2ccc(NC(=O)[C@@H]3CCCN3C(=O)Cc3ccccc3)cc2)c(-c2ccc(NC(=O)[C@@H]3CCCN3C(=O)Cc3ccccc3)cc2)s1 [Example D-44, (2S,2′S)-N,N′-((2-methyl-1,3-thiazole-4,5-diyl)di-4,1-phenylene)bis(1-(phenylacetyl)-2-pyrrolidinecarboxamide)]
EC50 [1]: 4.57 to 99 nM

CC(=O)N1CCC[C@H]1C(=O)Nc1ccc(-c2cnc(-c3ccc(NC(=O)[C@@H]4C=CCN4C(=O)Cc4cccs4)cc3)o2)cc1 [Example D-1, (2S)-N-[4-[5-[4-[[[(2S)-1-acetyl-2-pyrrolidinyl]carbonyl]amino]phenyl]-2-oxazolyl]phenyl]-2,5-dihydro-1-(2-thienylacetyl)-1H-pyrrole-2-carboxamide]
EC50 [1]: 1000 to 10000 nM

O=C(Nc1ccc(-c2cnc(-c3ccc(NC(=O)[C@@H]4C[C@@H](O)CN4C(=O)C4CC4)cc3)o2)cc1)[C@@H]1C[C@@H](O)CN1C(=O)C1CC1 [XY-57, (2S,4R,2′S,4′R)-N,N′-(1,3-oxazole-2,5-diyldi-4,1-phenylene)bis(1-(cyclopropylcarbonyl)-4-hydroxy-2-pyrrolidinecarboxamide)]
EC50 [4]: 1000 to 10000 nM

O=C(Nc1ccc(-c2cnc(-c3ccc(NC(=O)[C@@H]4CCCN4C(=O)C4CCCCN4CC4CCCCC4)cc3)o2)cc1)[C@@H]1CCCN1C(=O)C1CCCCN1CC1CCCCC1 (stereo partly drawn) [Example D-22, (2S,2′S)-N,N′-(1,3-oxazole-2,5-diyldi-4,1-phenylene)bis(1-((1-(cyclohexylmethyl)-2-piperidinyl)carbonyl)-2-pyrrolidinecarboxamide)]
EC50 [1]: 100 to 999 nM
